Experimental data as given in PubChem BioAssay (NCI).
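GI50: concentration for 50% inhibition of growth. TGI is the concentration that stops growth completely.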

Legend:
Assay in all cases: inhibition of tumour cell growth, NCI panel, 384-well format
HT29 colon = system: HT29 colon
SF-268 CNS = system: SF-268 CNS
HOP-92 NSCLC = system: HOP-92 NSCLC
T-47D breast = system: T-47D breast
LOX IMVI melanoma = system: LOX IMVI melanoma
NCI-H322M lung = system: NCI-H322M lung
ACHN renal = system: ACHN renal
OVCAR-8 ovarian = system: OVCAR-8 ovarian
OVCAR-4 ovarian = system: OVCAR-4 ovarian
SR leukemia = system: SR leukemia
UACC-257 melanoma = system: UACC-257 melanoma
CAKI-1 renal = system: CAKI-1 renal
TK-10 renal = system: TK-10 renal
KM12 colon = system: KM12 colon
NCI-H460 NSCLC = system: NCI-H460 NSCLC
HCT-116 colon = system: HCT-116 colon
OVCAR-3 ovarian = system: OVCAR-3 ovarian
HCT-15 colon = system: HCT-15 colon
M14 melanoma = system: M14 melanoma
PC-3 prostate = system: PC-3 prostate
SNB-75 CNS = system: SNB-75 CNS
NCI-H226 lung = system: NCI-H226 lung
NCI/ADR-RES ovarian = system: NCI/ADR-RES ovarian
MALME-3M melanoma = system: MALME-3M melanoma
A498 renal = system: A498 renal
HS 578T breast = system: HS 578T breast
UACC-62 melanoma = system: UACC-62 melanoma
SF-539 CNS = system: SF-539 CNS
MCF7 breast = system: MCF7 breast
NCI-H522 lung = system: NCI-H522 lung
SF-295 CNS = system: SF-295 CNS
UO-31 renal = system: UO-31 renal
SN12C renal = system: SN12C renal
HL-60(TB) leukemia = system: HL-60(TB) leukemia
CCRF-CEM leukemia = system: CCRF-CEM leukemia
MDA-MB-468 breast = system: MDA-MB-468 breast
IGROV1 ovarian = system: IGROV1 ovarian
A549 NSCLC = system: A549 NSCLC
BT-549 breast = system: BT-549 breast
EKVX NSCLC = system: EKVX NSCLC
COLO 205 colon = system: COLO 205 colon
DU-145 prostate = system: DU-145 prostate
SK-OV-3 ovarian = system: SK-OV-3 ovarian
MDA-MB-231 breast = system: MDA-MB-231 breast
HOP-62 NSCLC = system: HOP-62 NSCLC
SW-620 colon = system: SW-620 colon
786-0 renal = system: 786-0 renal
RXF 393 renal = system: RXF 393 renal
NCI-H23 lung = system: NCI-H23 lung
SNB-19 CNS = system: SNB-19 CNS
SK-MEL-5 melanoma = system: SK-MEL-5 melanoma
RPMI-8226 leukemia = system: RPMI-8226 leukemia
HCC-2998 colon = system: HCC-2998 colon
SK-MEL-28 melanoma = system: SK-MEL-28 melanoma
K-562 leukemia = system: K-562 leukemia
U251 glioblastoma = system: U251 glioblastoma
MOLT-4 leukemia = system: MOLT-4 leukemia
MDA-MB-435 melanoma = system: MDA-MB-435 melanoma

**Q.** Which results are given for CN(C)CCCOc1ccc(-c2ccc3ncc4c(c3c2)n(C2CCOCC2)c(=O)n4C)cn1?
**A.** GI50 (HT29 colon): 4.36 µM; TGI (HT29 colon): 27.8 µM; GI50 (SF-268 CNS): 4.23 µM; TGI (SF-268 CNS): > 100 µM; GI50 (HOP-92 NSCLC): 3.45 µM; TGI (HOP-92 NSCLC): 20.2 µM; GI50 (T-47D breast): 1.22 µM; TGI (T-47D breast): 11.7 µM; GI50 (LOX IMVI melanoma): 2.45 µM; TGI (LOX IMVI melanoma): 14.5 µM; GI50 (NCI-H322M lung): 3.21 µM; TGI (NCI-H322M lung): 36.7 µM; GI50 (ACHN renal): 5.21 µM; TGI (ACHN renal): > 100 µM; GI50 (OVCAR-8 ovarian): 5.22 µM; TGI (OVCAR-8 ovarian): > 100 µM; GI50 (OVCAR-4 ovarian): 7.94 µM; TGI (OVCAR-4 ovarian): > 100 µM; GI50 (SR leukemia): 0.172 µM; TGI (SR leukemia): 0.445 µM; GI50 (UACC-257 melanoma): > 100 µM; TGI (UACC-257 melanoma): > 100 µM; GI50 (CAKI-1 renal): 1.45 µM; TGI (CAKI-1 renal): 6.38 µM; GI50 (TK-10 renal): 3 µM; TGI (TK-10 renal): 49.5 µM; GI50 (KM12 colon): 2.67 µM; TGI (KM12 colon): 26 µM; GI50 (NCI-H460 NSCLC): 1.5 µM; TGI (NCI-H460 NSCLC): 96.2 µM; GI50 (HCT-116 colon): 6.44 µM; TGI (HCT-116 colon): 55.7 µM; GI50 (OVCAR-3 ovarian): 1.69 µM; TGI (OVCAR-3 ovarian): 4.86 µM; GI50 (HCT-15 colon): 5.01 µM; TGI (HCT-15 colon): > 100 µM; GI50 (M14 melanoma): 3.32 µM; TGI (M14 melanoma): > 100 µM; GI50 (PC-3 prostate): 1.73 µM; TGI (PC-3 prostate): 12 µM; GI50 (SNB-75 CNS): 2.76 µM; TGI (SNB-75 CNS): > 100 µM; GI50 (NCI-H226 lung): 3.73 µM; TGI (NCI-H226 lung): > 100 µM; GI50 (NCI/ADR-RES ovarian): > 100 µM; TGI (NCI/ADR-RES ovarian): > 100 µM; GI50 (MALME-3M melanoma): 1.24 µM; TGI (MALME-3M melanoma): 6.1 µM; GI50 (A498 renal): 2.54 µM; TGI (A498 renal): > 100 µM; GI50 (HS 578T breast): 1.47 µM; TGI (HS 578T breast): 4.14 µM; GI50 (UACC-62 melanoma): 4.33 µM; TGI (UACC-62 melanoma): 23.3 µM; GI50 (SF-539 CNS): 3.85 µM; TGI (SF-539 CNS): > 100 µM; GI50 (MCF7 breast): 1.91 µM; TGI (MCF7 breast): > 100 µM; GI50 (NCI-H522 lung): 3.48 µM; TGI (NCI-H522 lung): > 100 µM; GI50 (SF-295 CNS): 2.95 µM; TGI (SF-295 CNS): > 100 µM; GI50 (UO-31 renal): 4.78 µM; TGI (UO-31 renal): > 100 µM; GI50 (SN12C renal): 2.32 µM; TGI (SN12C renal): 32.8 µM; GI50 (HL-60(TB) leukemia): 2.95 µM; TGI (HL-60(TB) leukemia): 11 µM; GI50 (CCRF-CEM leukemia): 1.95 µM; TGI (CCRF-CEM leukemia): 10 µM; GI50 (MDA-MB-468 breast): 2.47 µM; TGI (MDA-MB-468 breast): 19.9 µM; GI50 (IGROV1 ovarian): 1.17 µM; TGI (IGROV1 ovarian): 6.42 µM; GI50 (A549 NSCLC): 3.91 µM; TGI (A549 NSCLC): > 100 µM; GI50 (BT-549 breast): 3.56 µM; TGI (BT-549 breast): 30 µM; GI50 (EKVX NSCLC): 2.39 µM; TGI (EKVX NSCLC): > 100 µM; GI50 (COLO 205 colon): 2.17 µM; TGI (COLO 205 colon): 13.5 µM; GI50 (DU-145 prostate): 4.92 µM; TGI (DU-145 prostate): > 100 µM; GI50 (SK-OV-3 ovarian): 2.45 µM; TGI (SK-OV-3 ovarian): 71.9 µM; GI50 (MDA-MB-231 breast): 2.08 µM; TGI (MDA-MB-231 breast): > 100 µM; GI50 (HOP-62 NSCLC): 3.81 µM; TGI (HOP-62 NSCLC): > 100 µM; GI50 (SW-620 colon): 4.91 µM; TGI (SW-620 colon): > 100 µM; GI50 ([…]-0 renal): 5.99 µM; TGI (786-0 renal): > 100 µM; GI50 (RXF 393 renal): 5.05 µM; TGI (RXF 393 renal): > 100 µM; GI50 (NCI-H23 lung): 8.22 µM; TGI (NCI-H23 lung): > 100 µM; GI50 (SNB-19 CNS): 22.9 µM; TGI (SNB-19 CNS): > 100 µM; GI50 (SK-MEL-5 melanoma): 2.23 µM; TGI (SK-MEL-5 melanoma): > 100 µM; GI50 (RPMI-8226 leukemia): 0.738 µM; TGI (RPMI-8226 leukemia): 2.39 µM; GI50 (HCC-2998 colon): 3.12 µM; TGI (HCC-2998 colon): > 100 µM; GI50 (SK-MEL-28 melanoma): 5.73 µM; TGI (SK-MEL-28 melanoma): > 100 µM; GI50 (K-562 leukemia): 7.55 µM; TGI (K-562 leukemia): 30.6 µM; GI50 (U251 glioblastoma): > 100 µM; TGI (U251 glioblastoma): > 100 µM; GI50 (MOLT-4 leukemia): 1.39 µM; TGI (MOLT-4 leukemia): 4.71 µM; GI50 (MDA-MB-435 melanoma): 6.28 µM; TGI (MDA-MB-435 melanoma): > 100 µM
